In the NIST ThermoML archive (doi:10.1021/je900691n):

Assay: xn = mol fraction of the nth substance listed
Conditions: Liquid, Pycnometric method

COC(=O)OC [dimethyl carbonate] + O=C=O
Conditions	mass density [kg/m3]
327.95 K, 9750 kPa, x1 = 0.1484	856
327.95 K, 9760 kPa, x1 = 0.118	818
327.95 K, 9770 kPa, x1 = 0.0242	407
327.95 K, 9860 kPa, x1 = 0.0242	418
327.95 K, 9950 kPa, x1 = 0.0242	430
327.95 K, 9990 kPa, x1 = 0.086	750
327.95 K, 10040 kPa, x1 = 0.0242	442
327.95 K, 10120 kPa, x1 = 0.0242	453
327.95 K, 10240 kPa, x1 = 0.118	827
327.95 K, 10240 kPa, x1 = 0.1484	862
327.95 K, 10400 kPa, x1 = 0.086	762
327.95 K, 10740 kPa, x1 = 0.086	772
327.95 K, 10740 kPa, x1 = 0.118	835
327.95 K, 10770 kPa, x1 = 0.1484	868
327.95 K, 11180 kPa, x1 = 0.086	782
327.95 K, 11220 kPa, x1 = 0.118	842
327.95 K, 11260 kPa, x1 = 0.1484	873
327.95 K, 11650 kPa, x1 = 0.086	792
327.95 K, 11720 kPa, x1 = 0.118	849
327.95 K, 11760 kPa, x1 = 0.1484	878
327.95 K, 12200 kPa, x1 = 0.118	855
327.95 K, 12210 kPa, x1 = 0.086	802
327.95 K, 12260 kPa, x1 = 0.1484	883
327.95 K, 12680 kPa, x1 = 0.118	861
327.95 K, 12750 kPa, x1 = 0.086	812
327.95 K, 12800 kPa, x1 = 0.1484	888
327.95 K, 13200 kPa, x1 = 0.086	819
327.95 K, 13310 kPa, x1 = 0.1484	893
327.95 K, 13320 kPa, x1 = 0.118	868
327.95 K, 13680 kPa, x1 = 0.086	826
327.95 K, 13780 kPa, x1 = 0.118	873
327.95 K, 13800 kPa, x1 = 0.1484	897
327.95 K, 14170 kPa, x1 = 0.086	833
327.95 K, 14240 kPa, x1 = 0.1484	901
327.95 K, 14310 kPa, x1 = 0.118	879
327.95 K, 14710 kPa, x1 = 0.086	840
327.95 K, 14780 kPa, x1 = 0.1484	905
327.95 K, 14800 kPa, x1 = 0.118	884
327.95 K, 15160 kPa, x1 = 0.086	846
327.95 K, 15260 kPa, x1 = 0.118	888
327.95 K, 15300 kPa, x1 = 0.1484	909
327.95 K, 15660 kPa, x1 = 0.086	852
327.95 K, 15740 kPa, x1 = 0.118	892
327.95 K, 15860 kPa, x1 = 0.1484	913
327.95 K, 16180 kPa, x1 = 0.086	858
327.95 K, 16330 kPa, x1 = 0.118	897
327.95 K, 16560 kPa, x1 = 0.1484	918
328.15 K, 9640 kPa, x1 = 0.0481	532
328.15 K, 9710 kPa, x1 = 0.0481	543
328.15 K, 9800 kPa, x1 = 0.0481	556
328.15 K, 9910 kPa, x1 = 0.0481	570
328.15 K, 10030 kPa, x1 = 0.0481	585
328.15 K, 10180 kPa, x1 = 0.0481	600
328.15 K, 10340 kPa, x1 = 0.0481	615
328.15 K, 10540 kPa, x1 = 0.0481	632
328.15 K, 10720 kPa, x1 = 0.0481	645
328.15 K, 10940 kPa, x1 = 0.0481	659
328.15 K, 11190 kPa, x1 = 0.0481	673
328.15 K, 11350 kPa, x1 = 0.0481	681
332.85 K, 9040 kPa, x1 = 0.0242	282
332.85 K, 9110 kPa, x1 = 0.0242	287
332.85 K, 9180 kPa, x1 = 0.1484	814
332.85 K, 9200 kPa, x1 = 0.0242	292
332.85 K, 9270 kPa, x1 = 0.0242	298
332.85 K, 9350 kPa, x1 = 0.0242	305
332.85 K, 9430 kPa, x1 = 0.0242	311
332.85 K, 9520 kPa, x1 = 0.0242	318
332.85 K, 9620 kPa, x1 = 0.118	768
332.85 K, 9620 kPa, x1 = 0.1484	821
332.85 K, 9640 kPa, x1 = 0.0242	329
332.85 K, 9720 kPa, x1 = 0.0242	336
332.85 K, 9810 kPa, x1 = 0.0242	344
